Measured values reported in the kinase profiling compilation of Christmann-Franck et al. (2016).

Key:
Experiment in all cases: KINOMEscan competition binding
Settings in all cases: compound 10.0 µM; call rule not given here
[1] = target: NTRK1 (human) (UniProt P04629)
[2] = target: ROS1 (human) (UniProt P08922)
[3] = target: CAMK1 (human) (UniProt Q14012)
[4] = target: FGFR4 (human) (UniProt P22455)
[5] = target: PRKX (human) (UniProt P51817)
[6] = target: CAMK2B (human) (UniProt Q13554)
[7] = target: JAK1 JH2 pseudokinase (human) (UniProt P23458)
[8] = target: PLK1 (human) (UniProt P53350)
[9] = target: STK36 (human) (UniProt Q9NRP7)
[10] = target: NEK7 (human) (UniProt Q8TDX7)
[11] = target: FGFR3 (human) (UniProt P22607)
[12] = target: NEK2 (human) (UniProt P51955)
[13] = target: PAK4 (human) (UniProt O96013)
[14] = target: PIM1 (human) (UniProt P11309)
[15] = target: PAK7 (human) (UniProt Q9P286)
[16] = target: PRKG1 (human) (UniProt Q13976)
[17] = target: PLK3 (human) (UniProt Q9H4B4)
[18] = target: PAK6 (human) (UniProt Q9NQU5)
[19] = target: MAP3K5 (human) (UniProt Q99683)
[20] = target: PHKG1 (human) (UniProt Q16816)
[21] = target: FGFR2 (human) (UniProt P21802)
[22] = target: PTK2B (human) (UniProt Q14289)
[23] = target: PTK2 (human) (UniProt Q05397)
[24] = target: EGFR (human) (UniProt P00533)
[25] = target: PRKG2 (human) (UniProt Q13237)
[26] = target: EPHA4 (human) (UniProt P54764)
[27] = target: ERBB2 (human) (UniProt P04626)
[28] = target: RIPK2 (human) (UniProt O43353)
[29] = target: EPHB2 (human) (UniProt P29323)
[30] = target: PHKG2 (human) (UniProt P15735)

Chain of EGFR (human) (P00533 whole entry, looked up): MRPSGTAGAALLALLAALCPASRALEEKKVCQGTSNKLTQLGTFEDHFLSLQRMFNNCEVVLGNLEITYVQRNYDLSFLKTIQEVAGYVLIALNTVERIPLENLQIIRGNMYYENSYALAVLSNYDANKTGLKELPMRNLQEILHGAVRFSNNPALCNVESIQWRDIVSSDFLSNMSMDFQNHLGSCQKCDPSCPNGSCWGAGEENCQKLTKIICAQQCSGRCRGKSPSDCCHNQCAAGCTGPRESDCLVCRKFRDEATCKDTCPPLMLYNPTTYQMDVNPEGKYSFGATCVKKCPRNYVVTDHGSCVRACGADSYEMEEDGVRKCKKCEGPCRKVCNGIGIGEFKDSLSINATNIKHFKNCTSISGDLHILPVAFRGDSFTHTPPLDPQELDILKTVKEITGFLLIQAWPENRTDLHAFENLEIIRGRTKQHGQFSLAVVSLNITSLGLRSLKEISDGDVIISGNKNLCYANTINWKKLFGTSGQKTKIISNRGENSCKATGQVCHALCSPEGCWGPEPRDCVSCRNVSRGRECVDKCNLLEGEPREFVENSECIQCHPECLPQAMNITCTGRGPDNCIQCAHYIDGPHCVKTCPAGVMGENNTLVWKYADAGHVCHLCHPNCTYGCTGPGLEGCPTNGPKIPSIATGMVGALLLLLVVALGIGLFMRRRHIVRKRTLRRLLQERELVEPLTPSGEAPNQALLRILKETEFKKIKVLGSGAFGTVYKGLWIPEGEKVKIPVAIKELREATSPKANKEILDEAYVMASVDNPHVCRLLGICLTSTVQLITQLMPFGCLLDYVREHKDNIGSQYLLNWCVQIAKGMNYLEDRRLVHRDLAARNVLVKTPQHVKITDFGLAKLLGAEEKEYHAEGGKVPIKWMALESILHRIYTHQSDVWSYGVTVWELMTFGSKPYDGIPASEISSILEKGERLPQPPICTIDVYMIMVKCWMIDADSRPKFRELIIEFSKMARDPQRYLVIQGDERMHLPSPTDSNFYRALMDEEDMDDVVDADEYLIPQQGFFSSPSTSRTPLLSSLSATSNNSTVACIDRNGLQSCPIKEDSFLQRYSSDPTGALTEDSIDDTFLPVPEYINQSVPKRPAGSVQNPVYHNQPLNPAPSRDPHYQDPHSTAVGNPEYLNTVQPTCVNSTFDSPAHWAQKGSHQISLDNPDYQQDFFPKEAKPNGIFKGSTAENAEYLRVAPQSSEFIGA
Chain of PRKX (human) (P51817 whole entry, looked up): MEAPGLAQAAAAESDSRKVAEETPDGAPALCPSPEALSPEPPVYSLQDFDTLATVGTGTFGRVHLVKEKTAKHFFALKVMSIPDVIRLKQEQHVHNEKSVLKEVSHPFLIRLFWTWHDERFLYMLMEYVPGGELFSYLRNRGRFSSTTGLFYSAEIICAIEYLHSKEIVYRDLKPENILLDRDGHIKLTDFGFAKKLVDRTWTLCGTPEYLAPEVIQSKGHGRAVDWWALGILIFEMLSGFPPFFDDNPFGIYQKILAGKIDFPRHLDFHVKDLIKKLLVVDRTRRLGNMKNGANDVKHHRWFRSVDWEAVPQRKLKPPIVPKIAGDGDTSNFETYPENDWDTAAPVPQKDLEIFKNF
Chain of PAK6 (human) (Q9NQU5 whole entry, looked up): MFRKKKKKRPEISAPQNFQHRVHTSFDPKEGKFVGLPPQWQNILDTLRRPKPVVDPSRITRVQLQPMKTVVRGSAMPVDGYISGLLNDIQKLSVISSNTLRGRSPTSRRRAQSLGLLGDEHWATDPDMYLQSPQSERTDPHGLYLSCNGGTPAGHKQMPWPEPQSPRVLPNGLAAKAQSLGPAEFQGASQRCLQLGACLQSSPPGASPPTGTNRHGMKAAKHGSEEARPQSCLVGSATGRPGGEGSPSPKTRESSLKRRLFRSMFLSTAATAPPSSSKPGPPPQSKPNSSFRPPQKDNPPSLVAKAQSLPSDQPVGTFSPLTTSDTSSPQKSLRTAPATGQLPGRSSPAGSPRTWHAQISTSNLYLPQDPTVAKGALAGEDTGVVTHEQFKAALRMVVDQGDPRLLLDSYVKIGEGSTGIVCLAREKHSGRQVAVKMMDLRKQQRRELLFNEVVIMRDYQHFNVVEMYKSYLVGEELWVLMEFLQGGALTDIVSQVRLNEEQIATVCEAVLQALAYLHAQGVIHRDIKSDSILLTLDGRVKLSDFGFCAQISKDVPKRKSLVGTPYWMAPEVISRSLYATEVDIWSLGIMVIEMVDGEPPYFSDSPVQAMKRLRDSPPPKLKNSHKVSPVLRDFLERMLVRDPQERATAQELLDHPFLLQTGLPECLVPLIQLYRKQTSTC
Chain of PTK2B (human) (Q14289 whole entry, looked up): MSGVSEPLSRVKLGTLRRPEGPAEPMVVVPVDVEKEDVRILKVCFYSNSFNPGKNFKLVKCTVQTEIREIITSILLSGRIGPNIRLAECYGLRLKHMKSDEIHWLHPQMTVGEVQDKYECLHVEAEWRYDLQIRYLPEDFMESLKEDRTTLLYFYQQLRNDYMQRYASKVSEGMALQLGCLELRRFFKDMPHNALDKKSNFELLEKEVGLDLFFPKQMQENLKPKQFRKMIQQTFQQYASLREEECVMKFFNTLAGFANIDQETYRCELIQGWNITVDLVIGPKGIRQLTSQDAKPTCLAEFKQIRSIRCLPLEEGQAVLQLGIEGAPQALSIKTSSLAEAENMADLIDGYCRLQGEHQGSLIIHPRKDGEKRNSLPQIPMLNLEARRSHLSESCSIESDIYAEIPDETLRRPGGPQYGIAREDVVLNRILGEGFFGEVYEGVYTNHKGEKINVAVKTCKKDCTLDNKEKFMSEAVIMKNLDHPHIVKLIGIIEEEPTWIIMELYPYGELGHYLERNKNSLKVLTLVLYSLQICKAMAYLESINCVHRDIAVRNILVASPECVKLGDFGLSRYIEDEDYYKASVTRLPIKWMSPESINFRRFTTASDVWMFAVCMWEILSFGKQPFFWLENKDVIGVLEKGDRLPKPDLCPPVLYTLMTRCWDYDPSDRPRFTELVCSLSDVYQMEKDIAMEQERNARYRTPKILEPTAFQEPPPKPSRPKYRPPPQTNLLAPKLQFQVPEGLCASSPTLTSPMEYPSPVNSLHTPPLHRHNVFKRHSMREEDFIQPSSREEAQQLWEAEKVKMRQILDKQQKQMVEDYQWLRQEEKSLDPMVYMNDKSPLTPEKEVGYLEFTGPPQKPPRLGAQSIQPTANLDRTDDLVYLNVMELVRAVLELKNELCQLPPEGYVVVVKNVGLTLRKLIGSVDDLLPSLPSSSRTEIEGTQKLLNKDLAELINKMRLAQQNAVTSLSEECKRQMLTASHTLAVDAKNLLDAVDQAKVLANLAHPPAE
Chain of MAP3K5 (human) (Q99683 whole entry, looked up): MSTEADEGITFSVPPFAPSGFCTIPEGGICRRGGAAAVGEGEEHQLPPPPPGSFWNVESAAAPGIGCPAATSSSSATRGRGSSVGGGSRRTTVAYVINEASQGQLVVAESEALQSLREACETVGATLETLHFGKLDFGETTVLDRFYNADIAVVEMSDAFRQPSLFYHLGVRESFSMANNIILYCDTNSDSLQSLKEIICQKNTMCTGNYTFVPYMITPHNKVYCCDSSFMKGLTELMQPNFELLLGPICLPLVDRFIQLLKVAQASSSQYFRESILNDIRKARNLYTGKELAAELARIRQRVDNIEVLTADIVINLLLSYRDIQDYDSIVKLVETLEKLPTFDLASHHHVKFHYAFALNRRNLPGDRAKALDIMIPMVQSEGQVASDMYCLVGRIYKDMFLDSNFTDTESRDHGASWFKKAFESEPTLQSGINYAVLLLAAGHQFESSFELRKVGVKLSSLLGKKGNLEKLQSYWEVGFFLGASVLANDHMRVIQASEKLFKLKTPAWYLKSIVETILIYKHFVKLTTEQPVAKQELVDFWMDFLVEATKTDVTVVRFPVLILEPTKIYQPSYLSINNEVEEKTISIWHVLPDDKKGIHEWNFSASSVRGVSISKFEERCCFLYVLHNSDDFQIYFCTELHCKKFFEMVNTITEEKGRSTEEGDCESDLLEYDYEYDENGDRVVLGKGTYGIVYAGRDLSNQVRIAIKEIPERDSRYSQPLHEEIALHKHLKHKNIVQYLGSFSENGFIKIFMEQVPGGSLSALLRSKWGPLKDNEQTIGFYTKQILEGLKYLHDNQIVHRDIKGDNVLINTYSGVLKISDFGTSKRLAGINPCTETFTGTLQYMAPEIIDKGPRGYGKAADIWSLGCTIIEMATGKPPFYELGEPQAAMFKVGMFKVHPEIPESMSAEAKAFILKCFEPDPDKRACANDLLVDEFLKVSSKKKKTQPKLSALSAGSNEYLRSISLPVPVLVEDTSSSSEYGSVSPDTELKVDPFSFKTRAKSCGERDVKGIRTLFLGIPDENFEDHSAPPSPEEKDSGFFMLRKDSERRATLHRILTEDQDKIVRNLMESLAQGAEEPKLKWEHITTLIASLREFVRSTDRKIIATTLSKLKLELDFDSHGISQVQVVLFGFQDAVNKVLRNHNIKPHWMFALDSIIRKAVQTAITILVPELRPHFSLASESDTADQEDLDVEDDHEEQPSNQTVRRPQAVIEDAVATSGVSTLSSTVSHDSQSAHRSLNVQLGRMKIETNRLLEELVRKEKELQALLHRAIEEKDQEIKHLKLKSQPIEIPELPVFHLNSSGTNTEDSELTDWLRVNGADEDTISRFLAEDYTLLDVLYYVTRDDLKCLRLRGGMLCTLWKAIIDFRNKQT
Chain of NEK2 (human) (P51955 whole entry, looked up): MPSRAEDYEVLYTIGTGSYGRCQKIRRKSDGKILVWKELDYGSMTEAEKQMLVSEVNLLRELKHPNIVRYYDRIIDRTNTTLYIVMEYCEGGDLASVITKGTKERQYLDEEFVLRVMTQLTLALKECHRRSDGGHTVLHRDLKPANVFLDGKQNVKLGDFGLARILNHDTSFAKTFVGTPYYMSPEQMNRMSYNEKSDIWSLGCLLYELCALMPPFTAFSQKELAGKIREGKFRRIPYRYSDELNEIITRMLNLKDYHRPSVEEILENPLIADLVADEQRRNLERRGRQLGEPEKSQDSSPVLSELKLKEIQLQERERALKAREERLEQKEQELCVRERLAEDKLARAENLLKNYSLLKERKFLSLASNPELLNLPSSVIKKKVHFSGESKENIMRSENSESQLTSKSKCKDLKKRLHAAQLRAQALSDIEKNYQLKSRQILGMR

kinase still bound, per cent of control [1]: no effect (inactive) | kinase still bound, per cent of control [2]: no effect (inactive) | kinase still bound, per cent of control [3]: no effect (inactive) | kinase still bound, per cent of control [4]: no effect (inactive) | kinase still bound, per cent of control [5]: no effect (inactive) | kinase still bound, per cent of control [6]: no effect (inactive) | kinase still bound, per cent of control [7]: no effect (inactive) | kinase still bound, per cent of control [8]: no effect (inactive) | kinase still bound, per cent of control [9]: 0% | kinase still bound, per cent of control [10]: no effect (inactive) | kinase still bound, per cent of control [11]: no effect (inactive) | kinase still bound, per cent of control [12]: no effect (inactive) | kinase still bound, per cent of control [13]: no effect (inactive) | kinase still bound, per cent of control [14]: no effect (inactive) | kinase still bound, per cent of control [15]: no effect (inactive) | kinase still bound, per cent of control [16]: no effect (inactive) | kinase still bound, per cent of control [17]: no effect (inactive) | kinase still bound, per cent of control [18]: no effect (inactive) | kinase still bound, per cent of control [19]: no effect (inactive) | kinase still bound, per cent of control [20]: no effect (inactive) | kinase still bound, per cent of control [21]: no effect (inactive) | kinase still bound, per cent of control [22]: no effect (inactive) | kinase still bound, per cent of control [23]: no effect (inactive) | kinase still bound, per cent of control [24]: 0% | kinase still bound, per cent of control [25]: no effect (inactive) | kinase still bound, per cent of control [26]: no effect (inactive) | kinase still bound, per cent of control [27]: 0% | kinase still bound, per cent of control [28]: 0% | kinase still bound, per cent of control [29]: 0% | kinase still bound, per cent of control [30]: no effect (inactive)
Structure (SMILES): Nc1ncnc2c1c(-c1cccc(O)c1)cn2C1CCNCC1
